Measured values taken from article PMC4522657, “Identification of a DYRK1A Inhibitor that Induces Degradation of the Target Kinase using Co-chaperone CDC37 fused with Luciferase nanoKAZ” (Scientific Reports, 2015).

Tests used:
Experiment in all cases: Kinase panel, CaNDY 1 µM
Type in all cases: biochemical
Details in all cases: CaNDY 1 µM relative to DMSO
ACK = target: T1, ACK (Homo sapiens, UniProt Q07912)
T1 construct: purchased Carna Biosciences
Text: (§1) Detailed information on the assay conditions is available on the website of Carna Biosciences (http://www.carnabio.com/english/index.html; Kobe, Japan). In brief, full-length human recombinant kinases were expressed using a baculovirus expression system as amino-terminal GST-fusion proteins, and purified by glutathione-Sepharose chromatography. The GenBank accession numbers of DYRK1A, DYRK1B, DYRK2, and DYRK3 were NP_001387.2, NP_004705.1, NP_003574.1, and NP_003573.2. Kinase activities were evaluated by Off-chip Mobility Shift Assay after reaction of 1 μM of the substrate DYRKtide-F with ATP (25 μM for DYRK1A, 50 μM for DYRK1B, 10 μM for DYRK2, and 5 μM for DYRK3). For each compound, a DMSO solution was diluted in assay buffer to yield a final concentration of 1% DMSO. After incubation for one hour at room temperature, substrate phosphorylation was analyzed by electrophoretic separation of the substrate and products using a Caliper LC3000 platform (Caliper Life Sciences, Mountain View, CA, USA). The phosphorylated product (P)/(P + substrate) ratio was calculated at each concentration of each small molecule and the percent inhibition was expressed relative to a control assay in the absence of the small molecule. […] The IC50 of each compound was calculated by interpolation on a log-concentration-response curve fitted with a four-parameter logistic equation.
(§2) All kinase assays were carried out at Carna Biosciences. The inhibitory map was made with Kinome Render[36].

AKT1 = target: T2, AKT1 (Homo sapiens, UniProt P31749)
T2 construct: purchased Carna Biosciences
Text: as §1, §2

AMPKα2/β1/γ1 = target: T3, AMPKα2/β1/γ1 (Homo sapiens, UniProt P54646)
T3 construct: purchased Carna Biosciences
Text: as §1, §2

AXL = target: T4, AXL (Homo sapiens, UniProt P30530)
T4 construct: purchased Carna Biosciences
Text: as §1, §2

AurB = target: T5, AurB (Homo sapiens, UniProt Q96GD4)
T5 construct: purchased Carna Biosciences
Text: as §1, §2

AurC = target: T6, AurC (Homo sapiens, UniProt Q9UQB9)
T6 construct: purchased Carna Biosciences
Text: as §1, §2

BRSK2 = target: T7, BRSK2 (Homo sapiens, UniProt Q8IWQ3)
T7 construct: purchased Carna Biosciences
Text: as §1, §2

CDC7/ASK = target: T8, CDC7/ASK (Homo sapiens, UniProt O00311)
T8 construct: purchased Carna Biosciences
Text: as §1, §2

CDK3/CycE1 = target: T9, CDK3/CycE1 (Homo sapiens, UniProt Q00526)
T9 construct: purchased Carna Biosciences
Text: as §1, §2

CDK4/CycD3 = target: T10, CDK4/CycD3 (Homo sapiens, UniProt P11802)
T10 construct: purchased Carna Biosciences
Text: as §1, §2

CK1γ3 = target: T11, CK1γ3 (Homo sapiens, UniProt Q9Y6M4)
T11 construct: purchased Carna Biosciences
Text: as §1, §2

DCAMKL2 = target: T12, DCAMKL2 (Homo sapiens, UniProt Q8N568)
T12 construct: purchased Carna Biosciences
Text: as §1, §2

EPHA4 = target: T13, EPHA4 (Homo sapiens, UniProt P54764)
T13 construct: purchased Carna Biosciences
Text: as §1, §2

EPHA6 = target: T14, EPHA6 (Homo sapiens, UniProt Q9UF33)
T14 construct: purchased Carna Biosciences
Text: as §1, §2

EPHA7 = target: T15, EPHA7 (Homo sapiens, UniProt Q15375)
T15 construct: purchased Carna Biosciences
Text: as §1, §2

FES = target: T16, FES (Homo sapiens, UniProt P07332)
T16 construct: purchased Carna Biosciences
Text: as §1, §2

FMS = target: T17, FMS (Homo sapiens, UniProt P07333)
T17 construct: purchased Carna Biosciences
Text: as §1, §2

IKKβ = target: T18, IKKβ (Homo sapiens, UniProt O14920)
T18 construct: purchased Carna Biosciences
Text: as §1, §2

JNK2 = target: T19, JNK2 (Homo sapiens, UniProt P45984)
T19 construct: purchased Carna Biosciences
Text: as §1, §2

JNK3 = target: T20, JNK3 (Homo sapiens, UniProt P53779)
T20 construct: purchased Carna Biosciences
Text: as §1, §2

KIT(V654A) = target: T21, KIT(V654A) (Homo sapiens, UniProt P10721, V654A)
T21 construct: purchased Carna Biosciences
Text: as §1, §2

LCK = target: T22, LCK (Homo sapiens, UniProt P06239)
T22 construct: purchased Carna Biosciences
Text: as §1, §2

LTK = target: T23, LTK (Homo sapiens, UniProt P29376)
T23 construct: purchased Carna Biosciences
Text: as §1, §2

MAP2K3_Cascade = target: T24, MAP2K3_Cascade (Homo sapiens, UniProt P46734)
T24 construct: purchased Carna Biosciences
Text: as §1, §2

MAP2K4_Cascade = target: T25, MAP2K4_Cascade (Homo sapiens, UniProt P45985)
T25 construct: purchased Carna Biosciences
Text: as §1, §2

PAK2 = target: T26, PAK2 (Homo sapiens, UniProt Q13177)
T26 construct: purchased Carna Biosciences
Text: as §1, §2

PDGFRβ = target: T27, PDGFRβ (Homo sapiens, UniProt P09619)
T27 construct: purchased Carna Biosciences
Text: as §1, §2

PDK1 = target: T28, PDK1 (Homo sapiens, UniProt O15530)
T28 construct: purchased Carna Biosciences
Text: as §1, §2

PGK = target: T29, PGK (Homo sapiens, UniProt Q13976)
T29 construct: purchased Carna Biosciences
Text: as §1, §2

PKACγ = target: T30, PKACγ (Homo sapiens, UniProt P22612)
T30 construct: purchased Carna Biosciences
Text: as §1, §2

RET(G691S) = target: T31, RET(G691S) (Homo sapiens, UniProt P07949, G691S)
T31 construct: purchased Carna Biosciences
Text: as §1, §2

RON = target: T32, RON (Homo sapiens, UniProt Q04912)
T32 construct: purchased Carna Biosciences
Text: as §1, §2

SRM = target: T33, SRM (Homo sapiens, UniProt Q9H3Y6)
T33 construct: purchased Carna Biosciences
Text: as §1, §2

SRPK2 = target: T34, SRPK2 (Homo sapiens, UniProt P78362)
T34 construct: purchased Carna Biosciences
Text: as §1, §2

TAK1-TAB1_Cascade = target: T35, TAK1-TAB1_Cascade (Homo sapiens, UniProt O43318)
T35 construct: purchased Carna Biosciences
Text: as §1, §2

WNK1 = target: T36, WNK1 (Homo sapiens, UniProt Q9H4A3)
T36 construct: purchased Carna Biosciences
Text: as §1, §2

T3 sequence (P54646 whole entry): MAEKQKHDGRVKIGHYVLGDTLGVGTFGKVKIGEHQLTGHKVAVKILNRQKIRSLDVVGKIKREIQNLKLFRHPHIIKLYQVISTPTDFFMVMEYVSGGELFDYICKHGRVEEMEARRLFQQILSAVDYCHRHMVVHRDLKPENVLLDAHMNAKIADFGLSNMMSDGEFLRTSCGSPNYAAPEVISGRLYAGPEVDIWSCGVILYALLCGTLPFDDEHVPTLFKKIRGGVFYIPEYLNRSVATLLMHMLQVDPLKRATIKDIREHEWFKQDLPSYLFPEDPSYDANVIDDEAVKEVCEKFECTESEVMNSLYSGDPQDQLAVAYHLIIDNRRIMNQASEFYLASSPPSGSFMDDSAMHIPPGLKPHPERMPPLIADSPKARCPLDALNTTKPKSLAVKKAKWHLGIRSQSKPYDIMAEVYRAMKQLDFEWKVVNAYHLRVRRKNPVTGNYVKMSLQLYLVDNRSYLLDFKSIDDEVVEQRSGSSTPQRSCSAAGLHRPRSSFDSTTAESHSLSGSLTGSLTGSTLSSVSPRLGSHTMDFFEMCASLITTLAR
T3 sequence (Q9Y478 whole entry partner): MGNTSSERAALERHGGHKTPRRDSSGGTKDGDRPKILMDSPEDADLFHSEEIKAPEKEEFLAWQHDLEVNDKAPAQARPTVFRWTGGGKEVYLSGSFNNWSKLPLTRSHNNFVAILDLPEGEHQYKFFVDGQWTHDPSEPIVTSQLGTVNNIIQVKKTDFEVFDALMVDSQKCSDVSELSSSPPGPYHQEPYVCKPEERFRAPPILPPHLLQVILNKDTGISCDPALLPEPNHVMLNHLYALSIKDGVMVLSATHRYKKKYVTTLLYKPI
T3 sequence (P54619 whole entry partner): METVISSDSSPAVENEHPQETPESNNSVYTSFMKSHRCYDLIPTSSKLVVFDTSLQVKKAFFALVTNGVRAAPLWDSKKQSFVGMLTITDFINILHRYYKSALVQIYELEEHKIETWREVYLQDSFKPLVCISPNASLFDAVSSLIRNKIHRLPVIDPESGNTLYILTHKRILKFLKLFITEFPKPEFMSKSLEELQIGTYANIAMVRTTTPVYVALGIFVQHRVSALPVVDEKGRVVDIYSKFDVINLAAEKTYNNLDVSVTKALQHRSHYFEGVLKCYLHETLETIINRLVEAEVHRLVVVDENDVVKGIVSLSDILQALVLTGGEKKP
T28 sequence (O15530 whole entry): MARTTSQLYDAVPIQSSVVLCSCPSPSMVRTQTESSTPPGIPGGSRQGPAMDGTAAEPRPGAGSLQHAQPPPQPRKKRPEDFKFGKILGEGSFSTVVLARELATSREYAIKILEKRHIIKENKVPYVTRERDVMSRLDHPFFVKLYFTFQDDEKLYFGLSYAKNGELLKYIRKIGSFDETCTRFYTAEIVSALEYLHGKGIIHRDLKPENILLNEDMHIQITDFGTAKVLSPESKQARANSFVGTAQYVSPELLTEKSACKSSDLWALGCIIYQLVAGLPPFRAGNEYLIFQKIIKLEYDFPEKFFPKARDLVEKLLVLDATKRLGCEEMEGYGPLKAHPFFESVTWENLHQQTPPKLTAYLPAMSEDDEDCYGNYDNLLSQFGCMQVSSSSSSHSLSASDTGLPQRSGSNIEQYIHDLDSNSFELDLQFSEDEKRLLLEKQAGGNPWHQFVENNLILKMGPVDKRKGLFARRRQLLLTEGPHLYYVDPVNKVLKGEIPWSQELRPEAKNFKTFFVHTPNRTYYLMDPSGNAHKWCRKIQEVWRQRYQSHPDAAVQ
T14 sequence (Q9UF33 23-1036): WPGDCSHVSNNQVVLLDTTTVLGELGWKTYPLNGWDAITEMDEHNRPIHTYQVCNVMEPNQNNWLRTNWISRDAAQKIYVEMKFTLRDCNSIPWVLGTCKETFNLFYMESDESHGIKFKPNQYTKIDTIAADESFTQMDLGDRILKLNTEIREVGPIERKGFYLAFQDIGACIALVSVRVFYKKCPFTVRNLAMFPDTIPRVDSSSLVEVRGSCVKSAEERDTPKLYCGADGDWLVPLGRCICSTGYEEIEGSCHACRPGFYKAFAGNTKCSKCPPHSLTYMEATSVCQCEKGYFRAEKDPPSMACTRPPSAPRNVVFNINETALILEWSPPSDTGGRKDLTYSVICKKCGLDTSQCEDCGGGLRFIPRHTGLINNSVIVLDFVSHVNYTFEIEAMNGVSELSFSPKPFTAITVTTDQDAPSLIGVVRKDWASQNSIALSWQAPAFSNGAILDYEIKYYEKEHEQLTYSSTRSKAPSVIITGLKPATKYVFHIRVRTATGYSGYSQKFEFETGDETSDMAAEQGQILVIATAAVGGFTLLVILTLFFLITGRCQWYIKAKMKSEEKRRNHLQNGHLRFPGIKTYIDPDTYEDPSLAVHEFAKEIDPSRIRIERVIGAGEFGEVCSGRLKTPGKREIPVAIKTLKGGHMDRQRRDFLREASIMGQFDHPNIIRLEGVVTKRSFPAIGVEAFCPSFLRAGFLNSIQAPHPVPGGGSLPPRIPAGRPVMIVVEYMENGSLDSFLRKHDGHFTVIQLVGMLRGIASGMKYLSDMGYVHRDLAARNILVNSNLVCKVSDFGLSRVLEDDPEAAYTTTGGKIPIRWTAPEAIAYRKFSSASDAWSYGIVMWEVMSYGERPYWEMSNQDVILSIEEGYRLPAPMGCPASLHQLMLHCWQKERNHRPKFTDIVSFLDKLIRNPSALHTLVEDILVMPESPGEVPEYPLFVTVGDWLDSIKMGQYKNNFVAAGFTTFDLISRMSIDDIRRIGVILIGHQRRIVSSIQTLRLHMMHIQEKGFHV
T29 sequence (Q13976 whole entry): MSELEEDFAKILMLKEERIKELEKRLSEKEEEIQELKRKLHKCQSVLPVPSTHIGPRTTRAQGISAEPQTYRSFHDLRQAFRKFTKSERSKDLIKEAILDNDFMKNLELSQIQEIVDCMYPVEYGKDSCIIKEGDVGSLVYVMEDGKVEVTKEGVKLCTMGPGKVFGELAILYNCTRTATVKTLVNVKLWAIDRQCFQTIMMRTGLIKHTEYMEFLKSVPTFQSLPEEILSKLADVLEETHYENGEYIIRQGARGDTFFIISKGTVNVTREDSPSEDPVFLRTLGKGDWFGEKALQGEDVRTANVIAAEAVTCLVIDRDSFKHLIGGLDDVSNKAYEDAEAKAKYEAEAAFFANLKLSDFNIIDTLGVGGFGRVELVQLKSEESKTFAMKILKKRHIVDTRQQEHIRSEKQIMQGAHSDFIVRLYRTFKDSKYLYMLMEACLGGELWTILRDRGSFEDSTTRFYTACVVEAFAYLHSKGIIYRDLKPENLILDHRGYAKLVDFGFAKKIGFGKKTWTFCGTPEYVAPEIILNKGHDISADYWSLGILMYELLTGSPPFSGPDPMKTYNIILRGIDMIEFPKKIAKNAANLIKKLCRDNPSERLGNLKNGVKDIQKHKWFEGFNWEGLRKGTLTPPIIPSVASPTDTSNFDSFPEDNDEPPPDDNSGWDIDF
T34 sequence (P78362 whole entry): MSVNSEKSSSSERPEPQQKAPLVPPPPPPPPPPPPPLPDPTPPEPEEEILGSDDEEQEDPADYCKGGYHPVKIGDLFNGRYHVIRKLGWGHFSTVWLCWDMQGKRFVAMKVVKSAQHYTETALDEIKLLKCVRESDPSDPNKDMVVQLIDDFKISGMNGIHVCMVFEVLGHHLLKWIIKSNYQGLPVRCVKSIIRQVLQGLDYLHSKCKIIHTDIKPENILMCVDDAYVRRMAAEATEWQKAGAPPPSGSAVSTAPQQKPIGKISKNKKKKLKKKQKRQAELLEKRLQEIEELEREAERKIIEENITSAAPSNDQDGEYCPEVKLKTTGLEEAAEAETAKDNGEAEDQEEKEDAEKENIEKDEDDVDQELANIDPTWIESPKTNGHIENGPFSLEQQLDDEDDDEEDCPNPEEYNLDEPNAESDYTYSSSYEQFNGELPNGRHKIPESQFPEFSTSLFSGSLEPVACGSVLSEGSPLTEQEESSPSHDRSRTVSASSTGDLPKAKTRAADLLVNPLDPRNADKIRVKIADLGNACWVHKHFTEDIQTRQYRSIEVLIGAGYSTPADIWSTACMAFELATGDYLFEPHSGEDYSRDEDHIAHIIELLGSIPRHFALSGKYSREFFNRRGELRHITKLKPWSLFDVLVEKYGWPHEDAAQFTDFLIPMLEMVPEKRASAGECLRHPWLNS
T2 sequence (P31749 whole entry): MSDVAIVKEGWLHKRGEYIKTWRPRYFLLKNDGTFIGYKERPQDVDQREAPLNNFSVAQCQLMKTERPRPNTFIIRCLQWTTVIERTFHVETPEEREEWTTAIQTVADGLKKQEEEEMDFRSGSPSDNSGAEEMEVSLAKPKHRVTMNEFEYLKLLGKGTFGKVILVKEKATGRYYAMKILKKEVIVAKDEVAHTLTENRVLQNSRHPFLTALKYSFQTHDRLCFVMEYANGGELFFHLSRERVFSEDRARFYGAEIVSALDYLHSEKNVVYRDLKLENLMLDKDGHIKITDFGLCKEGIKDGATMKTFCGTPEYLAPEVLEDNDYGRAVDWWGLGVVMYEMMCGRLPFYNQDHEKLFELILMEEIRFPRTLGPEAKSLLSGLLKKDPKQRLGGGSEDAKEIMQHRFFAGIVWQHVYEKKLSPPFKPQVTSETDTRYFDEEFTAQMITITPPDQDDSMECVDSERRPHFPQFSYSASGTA
T30 sequence (P22612 whole entry): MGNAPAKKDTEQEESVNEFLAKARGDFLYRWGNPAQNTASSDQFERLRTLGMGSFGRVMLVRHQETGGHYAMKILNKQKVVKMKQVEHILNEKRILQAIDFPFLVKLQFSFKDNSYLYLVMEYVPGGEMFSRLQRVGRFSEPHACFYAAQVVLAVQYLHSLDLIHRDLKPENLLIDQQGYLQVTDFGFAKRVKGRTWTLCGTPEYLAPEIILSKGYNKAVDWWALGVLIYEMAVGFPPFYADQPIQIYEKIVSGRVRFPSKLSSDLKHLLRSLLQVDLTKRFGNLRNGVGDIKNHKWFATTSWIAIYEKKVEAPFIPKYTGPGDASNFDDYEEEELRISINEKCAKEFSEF

Work on `[H]/N=C1/NC(=O)C(=Cc2ccc3c(c2)CCO3)S1` [CaNDY, (Z)-5-[(2,3-dihydrobenzofuran-5-yl)methylene]-2-iminothiazolidin-4-one] yielded a remaining activity at 1 µM (ACK) of 108%, a remaining activity at 1 µM (AKT1) of 104% and a remaining activity at 1 µM (AMPKα2/β1/γ1) of 97.5%. The remaining activity at 1 µM (AXL) was 103%, the remaining activity at 1 µM (AurB) was 95.1% and the remaining activity at 1 µM (AurC) was 97%. The remaining activity at 1 µM (BRSK2) was 97.8%, the remaining activity at 1 µM (CDC7/ASK) was 68% and the “%Activity” value (CDK3/CycE1) was 94.7%. The remaining activity at 1 µM (CDK4/CycD3) was 86.4%, the “%Activity” value (CK1γ3) was 79.0% and the remaining activity at 1 µM (DCAMKL2) was 102%. The remaining activity at 1 µM (EPHA4) was 102%, the remaining activity at 1 µM (EPHA6) was 96.8% and the remaining activity at 1 µM (EPHA7) was 97.6%. It also gave a remaining activity at 1 µM (FES) of 109%, a remaining activity at 1 µM (FMS) of 101% and a remaining activity at 1 µM (IKKβ) of 104%. For the same molecule, the “%Activity” value (JNK2) was 102.6%, the “%Activity” value (JNK3) was 100.8% and the remaining activity at 1 µM (KIT(V654A)) was 98.5%. It also gave a remaining activity at 1 µM (LCK) of 99%, a remaining activity at 1 µM (LTK) of 96.9% and a remaining activity at 1 µM (MAP2K3_Cascade) of 101%. It also gave a remaining activity at 1 µM (MAP2K4_Cascade) of 100%, a remaining activity at 1 µM (PAK2) of 101% and a remaining activity at 1 µM (PDGFRβ) of 91.7%. The remaining activity at 1 µM (PDK1) was 107%, the remaining activity at 1 µM (PGK) was 92.8% and the remaining activity at 1 µM (PKACγ) was 78.2%. The remaining activity at 1 µM (RET(G691S)) was 102%, the remaining activity at 1 µM (RON) was 98.6% and the remaining activity at 1 µM (SRM) was 77%. For the same molecule, the remaining activity at 1 µM (SRPK2) was 96.6%, the remaining activity at 1 µM (TAK1-TAB1_Cascade) was 104% and the “%Activity” value (WNK1) was 98.8%.
